Source: PMC10344917, “Affinity and cooperativity modulate ternary complex formation to drive targeted protein degradation” (Nature Communications, 2023)

Target: T1, SMARCA2 (Homo sapiens, UniProt P51531)
T1 construct: endogenous in cells; host or cells: A375
Assay: SMARCA2 degradation, MSD assay, dose response
Format: cell-based
Set-up: key to AUC (area under the dose-response curve): sum of trapezoids of POC vs dose points, h = 1
Details: for Dmax: A-375, SMARCA2 degraded; for Dmax / DC50: MSD assay, 2 h timepoint; for Dmax / AUC (area under the dose-response curve) / DC50: A375 cells; for AUC (area under the dose-response curve): SMARCA2 MSD assay, 2 h; for DC50: SMARCA2 degradation
Description: A375 cells were treated with SMARCA2 or BRD4 degraders for 2 h (4 h for BRD4) and generated lysates. SMARCA2 or BRD4 protein was measured with a variation of a sandwich ELISA that was assembled from commercially available antibodies as well as reagents and instrumentation procured from Meso Scale Discovery (MSD). Degradation parameter, DC50, is not suitable for PROTACs that induce partial/incomplete DR curves at a fixed time point; maximum drop in target protein level (Dmax) >>0. Conversely, the area under the curve (AUC) can be calculated as a degradation activity parameter for any DR curve, and it encompasses both the degradation potency (i.e., DC50) and efficacy (i.e., Dmax) of PROTACs.
A 1:3 compound dose-response titration was diluted in growth media (1:20), added to appropriate wells of a cell culture plate (1:10) and then assay plates were incubated at 37 °C, 5% CO2.
Plates were washed with 300 µL per well MSD wash buffer (MSD R61TX-1) between each step. Following the last incubation, plates were washed with MSD wash buffer then 150 µL of MSD read buffer (MSD R92TC-2) was added to each well. Plates were immediately read on a MSD plate reader (MSD Sector Imager 6000).
MSD electrochemiluminescence signals were subtracted by the average background signal from wells with lysis buffer alone. Normalized MSD values (POC) for individual compound treated wells were acquired by dividing background-subtracted assay signal by signal from vehicle control wells (cells + 0.1% DMSO) and multiplying by 100. This POC data was graphed using a nonlinear regression curve fit xy analysis and a log(inhibitor) vs response —variable slope (four parameter) model for dose response curves (Graphpad Prism 9, San Diego, CA, USA). To calculate area under the curve, all points on the curve were connected and vertical lines were drawn from each point down to y = 0, generating a series of trapezoids. The area of each trapezoid was determined using the equation A = (1/2)(h)(b1 + b2), where h = 1 (distance between points), b1 = POC of the first point and b2 = POC of the second point. The sum of all trapezoids provides an approximate area under the curve (AUC). For half-life (t1/2) determination in time course studies, a one-phase decay model was used for curve fitting and the time at which the curve crossed 50 POC was determined through interpolation (Graphpad Prism 9, San Diego, CA, USA).

T1 sequence (P51531 whole entry): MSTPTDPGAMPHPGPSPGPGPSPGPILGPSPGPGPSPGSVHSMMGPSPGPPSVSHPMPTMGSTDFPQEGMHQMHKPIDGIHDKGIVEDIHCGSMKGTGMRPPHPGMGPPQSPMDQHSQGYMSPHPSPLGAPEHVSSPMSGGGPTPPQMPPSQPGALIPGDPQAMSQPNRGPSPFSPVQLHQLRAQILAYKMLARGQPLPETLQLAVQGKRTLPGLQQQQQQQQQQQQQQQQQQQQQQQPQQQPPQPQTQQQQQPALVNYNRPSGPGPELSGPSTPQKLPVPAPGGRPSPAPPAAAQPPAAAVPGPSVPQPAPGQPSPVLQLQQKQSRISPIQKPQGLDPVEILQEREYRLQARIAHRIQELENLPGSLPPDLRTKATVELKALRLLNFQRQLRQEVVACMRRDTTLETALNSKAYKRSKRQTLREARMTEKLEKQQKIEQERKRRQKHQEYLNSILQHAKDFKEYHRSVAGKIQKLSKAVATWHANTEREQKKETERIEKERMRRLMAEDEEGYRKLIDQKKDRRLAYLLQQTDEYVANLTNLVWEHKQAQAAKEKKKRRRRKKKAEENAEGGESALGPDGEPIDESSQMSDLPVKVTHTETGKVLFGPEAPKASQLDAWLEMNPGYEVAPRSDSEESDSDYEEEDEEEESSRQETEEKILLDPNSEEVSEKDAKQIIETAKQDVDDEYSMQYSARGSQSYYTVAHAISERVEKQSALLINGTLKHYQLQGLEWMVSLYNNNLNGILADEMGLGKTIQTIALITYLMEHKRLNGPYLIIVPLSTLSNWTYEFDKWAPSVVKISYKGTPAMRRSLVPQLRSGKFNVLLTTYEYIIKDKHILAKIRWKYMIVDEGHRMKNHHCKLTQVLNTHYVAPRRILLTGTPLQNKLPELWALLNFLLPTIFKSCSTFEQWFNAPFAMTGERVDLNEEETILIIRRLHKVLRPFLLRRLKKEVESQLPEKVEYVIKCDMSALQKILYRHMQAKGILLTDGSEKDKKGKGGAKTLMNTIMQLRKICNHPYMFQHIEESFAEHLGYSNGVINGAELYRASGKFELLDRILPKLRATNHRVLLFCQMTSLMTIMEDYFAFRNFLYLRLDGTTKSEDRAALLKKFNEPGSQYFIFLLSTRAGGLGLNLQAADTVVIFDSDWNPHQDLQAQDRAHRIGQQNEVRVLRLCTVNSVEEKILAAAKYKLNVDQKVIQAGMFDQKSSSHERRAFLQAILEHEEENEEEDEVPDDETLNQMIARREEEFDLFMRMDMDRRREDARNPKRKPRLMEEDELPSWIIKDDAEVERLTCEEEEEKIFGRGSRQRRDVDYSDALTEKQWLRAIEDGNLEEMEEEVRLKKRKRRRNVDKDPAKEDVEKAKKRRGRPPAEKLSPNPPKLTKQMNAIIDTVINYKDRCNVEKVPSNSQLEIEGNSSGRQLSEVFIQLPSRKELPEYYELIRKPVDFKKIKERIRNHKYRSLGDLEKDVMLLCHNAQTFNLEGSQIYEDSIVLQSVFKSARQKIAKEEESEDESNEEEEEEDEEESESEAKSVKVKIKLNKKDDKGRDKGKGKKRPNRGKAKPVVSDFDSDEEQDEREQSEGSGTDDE

Dmax [%]	AUC (area under the dose-response curve)	DC50 [nM]	SMARCA2 degradation (2 h MSD assay)	Compound
53	119	221	–	Cc1ncsc1-c1ccc(CNC(=O)C2C[C@@H](O)CN2C(=O)C(NC(=O)C2(F)CC2)C(C)(C)C)c(OCCc2ccc(CN3CCN(c4cc(-c5ccccc5O)nnc4N)CC3)cc2)c1 (stereo in doubt) [Compound 11, (2R,4R)-N-(2-(4-((4-(3-amino-6-(2-hydroxyphenyl)pyridazin-4-yl)piperazin-1-yl)methyl)phenethoxy)-4-(4-methylthiazol-5-yl)benzyl)-1-((R)-2-(1-fluorocyclopropane-1-carboxamido)-3,3-dimethylbutanoyl)-4-hydroxypyrrolidine-2-carboxamide, reference compound]
98	13	28	–	Cc1ncsc1-c1ccc([C@H](C)NC(=O)[C@@H]2C[C@@H](O)CN2C(=O)[C@@H](NC(=O)c2ccnc(N3CCN(c4cc(-c5ccccc5O)nnc4N)CC3)c2)C(C)(C)C)cc1 [Compound 1, 2-(4-(3-Amino-6-(2-hydroxyphenyl)pyridazin-4-yl)piperazin-1-yl)-N-((S)-1-((2S,4R)-4-hydroxy-2-(((S)-1-(4-(4-methylthiazol-5-yl)phenyl)ethyl)carbamoyl)pyrrolidin-1-yl)-3,3-dimethyl-1-oxobutan-2-yl)isonicotinamide]
95	28	95	–	Cc1ncsc1-c1ccc([C@H](C)NC(=O)[C@@H]2C[C@@H](O)CN2C(=O)[C@@H](NC(=O)c2cccc(N3CCN(c4cc(-c5ccccc5O)nnc4N)CC3)n2)C(C)(C)C)cc1 [Compound 2, 6-(4-(3-Amino-6-(2-hydroxyphenyl)pyridazin-4-yl)piperazin-1-yl)-N-((S)-1-((2S,4R)-4-hydroxy-2-(((S)-1-(4-(4-methylthiazol-5-yl)phenyl)ethyl)carbamoyl)pyrrolidin-1-yl)-3,3-dimethyl-1-oxobutan-2-yl)picolinamide]
96	26	99	–	Cc1ncsc1-c1ccc([C@H](C)NC(=O)[C@@H]2C[C@@H](O)CN2C(=O)[C@@H](NC(=O)c2cccc(N3CCN(c4cc(-c5ccccc5O)nnc4N)CC3)c2)C(C)(C)C)cc1 [Compound 4, (2S,4R)-1-((S)-2-(3-(4-(3-Amino-6-(2-hydroxyphenyl)pyridazin-4-yl)piperazin-1-yl)benzamido)-3,3-dimethylbutanoyl)-4-hydroxy-N-((S)-1-(4-(4-methylthiazol-5-yl)phenyl)ethyl)pyrrolidine-2-carboxamide]
96	28	112	–	Cc1ncsc1-c1ccc([C@H](C)NC(=O)[C@@H]2C[C@@H](O)CN2C(=O)[C@@H](NC(=O)c2csc(N3CCN(c4cc(-c5ccccc5O)nnc4N)CC3)n2)C(C)(C)C)cc1 [Compound 5, 2-(4-(3-Amino-6-(2-hydroxyphenyl)pyridazin-4-yl)piperazin-1-yl)-N-((S)-1-((2S,4R)-4-hydroxy-2-(((S)-1-(4-(4-methylthiazol-5-yl)phenyl)ethyl)carbamoyl)pyrrolidin-1-yl)-3,3-dimethyl-1-oxobutan-2-yl)thiazole-4-carboxamide]
96	26	85	–	Cc1ncsc1-c1ccc([C@H](C)NC(=O)[C@@H]2C[C@@H](O)CN2C(=O)[C@@H](NC(=O)CN2CCN(c3cc(-c4ccccc4O)nnc3N)CC2)C(C)(C)C)cc1 [Compound 6, (2S,4R)-1-((S)-2-(2-(4-(3-Amino-6-(2-hydroxyphenyl)pyridazin-4-yl)piperazin-1-yl)acetamido)-3,3-dimethylbutanoyl)-4-hydroxy-N-((S)-1-(4-(4-methylthiazol-5-yl)phenyl)ethyl)pyrrolidine-2-carboxamide, reference compound]
55	122	850	–	Cc1ncsc1-c1ccc([C@H](C)NC(=O)[C@@H]2C[C@@H](O)CN2C(=O)[C@@H](NC(=O)Cc2ccnc(N3CCN(c4cc(-c5ccccc5O)nnc4N)CC3)c2)C(C)(C)C)cc1 [Compound 7, (2S,4R)-1-((S)-2-(2-(2-(4-(3-Amino-6-(2-hydroxyphenyl)pyridazin-4-yl)piperazin-1-yl)pyridin-4-yl)acetamido)-3,3-dimethylbutanoyl)-4-hydroxy-N-((S)-1-(4-(4-methylthiazol-5-yl)phenyl)ethyl)pyrrolidine-2-carboxamide]
80	75	379	–	Cc1ncsc1-c1ccc([C@H](C)NC(=O)[C@@H]2C[C@@H](O)CN2C(=O)[C@@H](NC(=O)CCc2ccnc(N3CCN(c4cc(-c5ccccc5O)nnc4N)CC3)c2)C(C)(C)C)cc1 [Compound 8, (2S,4R)-1-((S)-2-(3-(2-(4-(3-Amino-6-(2-hydroxyphenyl)pyridazin-4-yl)piperazin-1-yl)pyridin-4-yl)propanamido)-3,3-dimethylbutanoyl)-4-hydroxy-N-((S)-1-(4-(4-methylthiazol-5-yl)phenyl)ethyl)pyrrolidine-2-carboxamide]
65	100	469	~ 30%	Cc1ncsc1-c1ccc([C@H](C)NC(=O)[C@@H]2C[C@@H](O)CN2C(=O)[C@@H](NC(=O)c2ccnc(N3CCN(c4cnnc(-c5ccccc5O)c4)CC3)c2)C(C)(C)C)cc1 [Compound 10, N-((S)-1-((2S,4R)-4-Hydroxy-2-(((S)-1-(4-(4-methylthiazol-5-yl)phenyl)ethyl)carbamoyl)pyrrolidin-1-yl)-3,3-dimethyl-1-oxobutan-2-yl)-2-(4-(6-(2-hydroxyphenyl)pyridazin-4-yl)piperazin-1-yl)isonicotinamide]
